Legend:
JNK1 [1] = target: T1, JNK1 (Homo sapiens, UniProt P45983); assay: KINOMEscan competition binding assay, JNK1; set-up: M1/Q384; host or cells: HEK-293; conditions: ratio PoC (off-target)/PoC (MKK4)
How it was run: (§1)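 DNA-tagged kinases expressed in HEK-293 cells compete between immobilized ligand on blocked beads and test compound at 100 nM; kinase retained on beads quantified by qPCR of the tag.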
Target sequence in this assay (P45983 1-384 isoform P45983-2): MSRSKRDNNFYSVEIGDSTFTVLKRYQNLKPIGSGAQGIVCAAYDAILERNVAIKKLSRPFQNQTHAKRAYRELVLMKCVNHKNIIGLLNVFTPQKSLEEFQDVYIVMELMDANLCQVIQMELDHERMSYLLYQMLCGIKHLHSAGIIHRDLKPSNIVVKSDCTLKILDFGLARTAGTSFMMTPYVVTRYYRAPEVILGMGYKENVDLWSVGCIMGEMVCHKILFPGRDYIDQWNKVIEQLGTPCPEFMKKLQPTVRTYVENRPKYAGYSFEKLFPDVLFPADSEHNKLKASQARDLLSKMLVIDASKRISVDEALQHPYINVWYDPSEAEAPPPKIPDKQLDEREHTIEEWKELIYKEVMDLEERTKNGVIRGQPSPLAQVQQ

MKK7 [2] = target: T2, MKK7 (Homo sapiens, UniProt O14733); assay: 33PanQinase enzyme assay, MKK7; format: biochemical; set-up: purchased ProQinase GmbH, Freiburg, Germany (33PanQinase Assay Service); conditions: ratio IC50(MKK7)/IC50(MKK4)
T2 sequence (O14733 1-419): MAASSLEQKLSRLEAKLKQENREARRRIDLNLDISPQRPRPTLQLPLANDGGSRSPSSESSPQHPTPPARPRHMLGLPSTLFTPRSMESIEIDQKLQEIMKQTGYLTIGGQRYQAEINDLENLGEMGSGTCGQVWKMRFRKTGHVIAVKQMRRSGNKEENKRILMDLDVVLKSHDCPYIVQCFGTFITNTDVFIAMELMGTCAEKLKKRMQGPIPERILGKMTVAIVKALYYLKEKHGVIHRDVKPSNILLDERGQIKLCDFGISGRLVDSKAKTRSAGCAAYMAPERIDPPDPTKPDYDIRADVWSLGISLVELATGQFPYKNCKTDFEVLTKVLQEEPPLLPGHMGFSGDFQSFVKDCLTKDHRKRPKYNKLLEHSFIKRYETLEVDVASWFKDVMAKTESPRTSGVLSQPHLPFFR
How it was run: (§2)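 33Pi incorporation, read by microplate scintillation counting, measured kinase activity after 60 min at 30 °C. Reactions were quenched with 2% (v/v) H3PO4 and washed with 0.9% NaCl. IC50 derived by least-squares fitting; single doses reported as % residual activity.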

MKK4 [3] = target: T3, MKK4 (Homo sapiens, UniProt P45985); assay: 33PanQinase enzyme assay, MKK4; format: biochemical; conditions: assay 'IC50'; read-out: Potency MKK4 (IC50)
T3 construct: purchased ProQinase GmbH, Freiburg, Germany (33PanQinase Assay Service)
T3 sequence (P45985 1-399): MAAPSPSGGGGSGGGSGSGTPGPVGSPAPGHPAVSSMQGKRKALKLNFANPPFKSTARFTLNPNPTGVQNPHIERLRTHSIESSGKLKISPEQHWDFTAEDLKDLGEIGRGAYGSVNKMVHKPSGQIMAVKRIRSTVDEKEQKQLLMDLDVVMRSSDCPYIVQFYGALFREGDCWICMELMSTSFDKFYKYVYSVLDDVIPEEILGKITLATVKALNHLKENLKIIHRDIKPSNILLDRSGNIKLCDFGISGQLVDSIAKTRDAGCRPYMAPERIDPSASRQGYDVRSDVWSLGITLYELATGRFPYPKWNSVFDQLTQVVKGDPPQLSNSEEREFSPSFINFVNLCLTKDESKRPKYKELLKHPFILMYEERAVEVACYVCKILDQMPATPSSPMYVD
How it was run: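 Inhibition measured as 33Pi transfer to substrate after a 60-min, 30 °C reaction, acid-stopped and scintillation-counted.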

MKK4 [4] = target: T4, MKK4 (Homo sapiens, UniProt P45985); assay: KINOMEscan competition binding assay, MKK4; conditions: residual percent of control binding (PoC) at 100 nM
T4 construct: S84/D399; host or cells: HEK-293
T4 sequence (P45985 84-399): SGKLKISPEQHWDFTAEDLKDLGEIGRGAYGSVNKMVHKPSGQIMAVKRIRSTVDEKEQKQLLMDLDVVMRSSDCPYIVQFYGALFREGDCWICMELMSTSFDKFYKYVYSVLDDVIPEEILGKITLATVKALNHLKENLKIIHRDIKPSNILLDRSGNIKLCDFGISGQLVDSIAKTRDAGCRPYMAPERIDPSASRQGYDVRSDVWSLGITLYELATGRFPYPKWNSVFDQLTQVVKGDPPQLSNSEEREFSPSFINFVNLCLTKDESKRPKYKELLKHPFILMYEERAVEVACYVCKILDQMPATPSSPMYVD
How it was run: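 Tested at 100 nM and reported as percent of control binding (PoC). MKK4 was produced in HEK-293 cells and DNA-tagged. Displacement from ligand-coated, blocked beads was read by qPCR of eluted kinase.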

JNK1 [5] = target: T1, JNK1; assay: 33PanQinase enzyme assay, JNK1; format: biochemical; set-up: purchased ProQinase GmbH, Freiburg, Germany (33PanQinase Assay Service); conditions: ratio IC50(JNK1)/IC50(MKK4)
How it was run: as §2
Target sequence in this assay (P45983 whole entry): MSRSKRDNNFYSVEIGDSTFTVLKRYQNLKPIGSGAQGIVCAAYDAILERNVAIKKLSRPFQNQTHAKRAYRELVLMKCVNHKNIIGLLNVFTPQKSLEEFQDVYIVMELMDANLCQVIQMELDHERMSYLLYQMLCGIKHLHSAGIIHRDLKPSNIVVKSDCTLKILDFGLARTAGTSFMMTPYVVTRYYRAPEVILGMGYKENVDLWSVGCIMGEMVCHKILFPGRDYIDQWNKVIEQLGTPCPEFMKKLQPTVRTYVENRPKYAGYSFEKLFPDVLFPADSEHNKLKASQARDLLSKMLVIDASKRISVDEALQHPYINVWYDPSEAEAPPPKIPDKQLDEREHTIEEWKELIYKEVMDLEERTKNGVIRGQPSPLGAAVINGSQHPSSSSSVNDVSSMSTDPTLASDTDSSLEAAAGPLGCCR

BRaf [6] = target: T5, BRaf (Homo sapiens, UniProt P15056); assay: 33PanQinase enzyme assay, BRaf; format: biochemical; conditions: ratio IC50(BRaf)/IC50(MKK4)
T5 construct: purchased ProQinase GmbH, Freiburg, Germany (33PanQinase Assay Service)
T5 sequence (P15056 whole entry, species assumed): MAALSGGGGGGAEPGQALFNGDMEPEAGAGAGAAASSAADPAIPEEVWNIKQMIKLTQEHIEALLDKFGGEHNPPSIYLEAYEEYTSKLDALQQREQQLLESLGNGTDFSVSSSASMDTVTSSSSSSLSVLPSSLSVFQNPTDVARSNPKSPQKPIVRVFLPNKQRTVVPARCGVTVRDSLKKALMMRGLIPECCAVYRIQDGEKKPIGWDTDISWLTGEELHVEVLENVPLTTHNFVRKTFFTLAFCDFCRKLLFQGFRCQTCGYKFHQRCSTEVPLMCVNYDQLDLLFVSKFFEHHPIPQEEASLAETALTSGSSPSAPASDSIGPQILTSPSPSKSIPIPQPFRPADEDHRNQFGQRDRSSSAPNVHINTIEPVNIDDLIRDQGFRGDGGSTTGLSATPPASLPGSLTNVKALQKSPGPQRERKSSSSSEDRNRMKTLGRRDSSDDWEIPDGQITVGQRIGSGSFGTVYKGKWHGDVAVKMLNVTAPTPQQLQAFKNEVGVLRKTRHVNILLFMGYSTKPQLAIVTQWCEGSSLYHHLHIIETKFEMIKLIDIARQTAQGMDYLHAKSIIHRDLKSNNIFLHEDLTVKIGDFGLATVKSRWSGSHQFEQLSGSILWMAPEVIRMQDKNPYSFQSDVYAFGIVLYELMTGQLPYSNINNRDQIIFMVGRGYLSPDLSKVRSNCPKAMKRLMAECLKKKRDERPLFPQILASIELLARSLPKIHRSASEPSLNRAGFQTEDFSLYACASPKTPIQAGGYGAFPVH
How it was run: as §2

MKK7 [7] = target: T2, MKK7; assay: KINOMEscan competition binding assay, MKK7; set-up: M1/R419; host or cells: HEK-293; conditions: ratio PoC (off-target)/PoC (MKK4)
How it was run: as §1

BRaf [8] = target: T5, BRaf; assay: KINOMEscan competition binding assay, BRaf; conditions: ratio PoC (off-target)/PoC (MKK4)
How it was run: as §1

SMILES	selectivity based on % Ctrl @100 nM vs. JNK1 (JNK1 [1])	Selectivity IVIKK7, IC50(off-target)/IC50(MKK4) (MKK7 [2])	IC50 (MKK4 [3]) [µM]	MKK4 [% Ctrl @ 100 nM (MKK4 [4])	Selectivity JNK1, IC50(off-target)/IC50(MKK4) (JNK1 [5])	Selectivity Braf, IC50(off-target)/IC50(MKK4) (BRaf [6])	selectivity based on % Ctrl @100 nM vs. MKK7 (MKK7 [7])	selectivity based on % Ctrl @100 nM vs. Braf (BRaf [8])
CCCS(=O)(=O)Nc1c(F)ccc(C(=O)c2c[nH]c3ncc(-c4ccc(C5CC5)nc4)cc23)c1F [Example 159, N-(3-(5-(6-cyclopropylpyridin-3-yl)-1H-pyrrolo[2,3-b]pyridine-3-carbonyl)-2,6-difluorophenyl)propane-1-sulfonamide]	+++ (Ratio > 100)	+++ (IC50(off-target)/IC50(MKK4) > 100)	< 0.1	+++ (PoC < 1)	+++ (IC50(off-target)/IC50(MKK4) > 100)	++ (100 ≥ IC50(off-target)/IC50(MKK4) > 10)	+++ (Ratio > 100)	+++ (Ratio > 100)
CCCS(=O)(=O)Nc1ccc(F)c(C(=O)c2c[nH]c3ncc(-c4ccc(C(F)(F)F)cc4)cc23)c1F [Example 106, N-(2,4-difluoro-3-(5-(4-(trifluoromethyl)phenyl)-1H-pyrrolo[2,3-b]pyridine-3-carbonyl)phenyl)propane-1-sulfonamide]	+ (10 ≥ ratio > 3)	+++ (IC50(off-target)/IC50(MKK4) > 100)	0.1 to 1	+ (3 ≤ PoC < 30)	+ (10 ≥ IC50(off-target)/IC50(MKK4) > 3)	◯ (3 ≥ IC50(off-target)/IC50(MKK4))	+ (10 ≥ ratio > 3)	◯ (3 ≥ Ratio)
CCCS(=O)(=O)Nc1ccc(F)c(C(=O)c2c[nH]c3ncc(-c4cccnn4)cc23)c1F [Example 48]	++ (100 ≥ ratio > 10)	++ (100 ≥ IC50(off-target)/IC50(MKK4) > 10)	1 to 10	+ (3 ≤ PoC < 30)	◯ (3 ≥ IC50(off-target)/IC50(MKK4))	◯ (3 ≥ IC50(off-target)/IC50(MKK4))	++ (100 ≥ ratio > 10)	◯ (3 ≥ Ratio)
Cc1cc(F)ccc1-c1cnc2[nH]cc(C(=O)c3cccc(NS(=O)(=O)Cc4ccccc4)c3F)c2c1 [Example 126, N-(2-fluoro-3-(5-(4-fluoro-2-methylphenyl)-1H-pyrrolo[2,3-b]pyridine-3-carbonyl)phenyl)-1-phenylmethanesulfonamide]	++ (100 ≥ ratio > 10)	+++ (IC50(off-target)/IC50(MKK4) > 100)	0.1 to 1	+ (3 ≤ PoC < 30)	+ (10 ≥ IC50(off-target)/IC50(MKK4) > 3)	+++ (IC50(off-target)/IC50(MKK4) > 100)	++ (100 ≥ ratio > 10)	++ (100 ≥ ratio > 10)
CCCS(=O)(=O)Nc1ccc(F)c(C(=O)c2c[nH]c3ncc(-c4cc[nH]c4)cc23)c1F [Example 100, N-(3-(5-(1H-pyrrol-3-yl)-1H-pyrrolo[2,3-b]pyridine-3-carbonyl)-2,4-difluorophenyl)propane-1-sulfonamide]	++ (100 ≥ ratio > 10)	◯ (3 ≥ IC50(off-target)/IC50(MKK4))	> 10	+ (3 ≤ PoC < 30)	◯ (3 ≥ IC50(off-target)/IC50(MKK4))	–	++ (100 ≥ ratio > 10)	◯ (3 ≥ Ratio)
CCCS(=O)(=O)Nc1ccc(F)c(C(=O)c2c[nH]c3ncc(-c4ccnnc4)cc23)c1F [Example 49]	+++ (Ratio > 100)	++ (100 ≥ IC50(off-target)/IC50(MKK4) > 10)	1 to 10	+++ (PoC < 1)	++ (100 ≥ IC50(off-target)/IC50(MKK4) > 10)	–	+++ (Ratio > 100)	◯ (3 ≥ Ratio)

More lines, now with the values ahead:

selectivity based on % Ctrl @100 nM vs. JNK1 (JNK1 [1])	Selectivity IVIKK7, IC50(off-target)/IC50(MKK4) (MKK7 [2])	IC50 (MKK4 [3]) [µM]	MKK4 [% Ctrl @ 100 nM (MKK4 [4])	Selectivity JNK1, IC50(off-target)/IC50(MKK4) (JNK1 [5])	Selectivity Braf, IC50(off-target)/IC50(MKK4) (BRaf [6])	selectivity based on % Ctrl @100 nM vs. MKK7 (MKK7 [7])	selectivity based on % Ctrl @100 nM vs. Braf (BRaf [8])	SMILES
+++ (Ratio > 100)	+++ (IC50(off-target)/IC50(MKK4) > 100)	< 0.1	+++ (PoC < 1)	+++ (IC50(off-target)/IC50(MKK4) > 100)	+++ (IC50(off-target)/IC50(MKK4) > 100)	+++ (Ratio > 100)	+++ (Ratio > 100)	O=C(c1ccc(F)c(NS(=O)(=O)CCC(F)(F)F)c1F)c1c[nH]c2ncc(-c3cnc(N4CCC4)nc3)cc12 [Example 180, N-(3(5-(2-(azetidin-1-yl)pyrimidin-5-yl)-1H-pyrrolo[2,3-b]pyridine-3-carbonyl)-2,6-difluorophenyl)-3,3,3-trifluoropropane-1-sulfonamide]
+++ (Ratio > 100)	+++ (IC50(off-target)/IC50(MKK4) > 100)	< 0.1	+++ (PoC < 1)	+++ (IC50(off-target)/IC50(MKK4) > 100)	–	+++ (Ratio > 100)	+++ (Ratio > 100)	CS(=O)(=O)Nc1c(F)ccc(C(=O)c2c[nH]c3ncc(-c4ccncc4)cc23)c1F [Example 234, N-(2,6-difluoro-3-(5-(pyridin-4-yl)-1H-pyrrolo[2,3-b]pyridine-3-carbonyl)phenyl)methanesulfonamide]
+++ (Ratio > 100)	+++ (IC50(off-target)/IC50(MKK4) > 100)	< 0.1	+++ (PoC < 1)	+++ (IC50(off-target)/IC50(MKK4) > 100)	–	+++ (Ratio > 100)	+++ (Ratio > 100)	CN(C)c1ncc(-c2cnc3[nH]cc(C(=O)c4ccc(F)c(NS(=O)(=O)CCC(F)(F)F)c4F)c3c2)cn1 [Example 178, N-(3-(5-(2-(dimethylamino)pyrimidin-5-yl)-1H-pyrrolo[2,3-b]pyridine-3-carbonyl)-2,6-difluorophenyl)-3,3,3-trifluoropropane-1-sulfonamide]

From US11912701B2, “Protein kinase inhibitors for promoting liver regeneration or reducing or preventing hepatocyte death” (HEPAREGENIX GMBH, priority 2018, dated 2024)
